Results on nine molecules are retold here after ChEMBL document CHEMBL4145658, “Modulators of the Cystic Fibrosis Transmembrane Conductance Regulator Protein” (ACS Med Chem Lett, 2018).

SMILES strings stand for the structures. Bounds are passed on as bounds.

What all share (assay type): cell-based
Assay [1] deals with T1, Cystic fibrosis transmembrane conductance regulator (Homo sapiens, UniProt P13569, F508DEL). The assay can be described thus: Corrector activity at HRP-fused CFTR F508del mutant (unknown origin) expressed in human CFBE41o cells assessed as increase in matured protein levels at cell surface after 18 to 24 hrs by luminescence assay.
T1 sequence (P13569 as listed by the source): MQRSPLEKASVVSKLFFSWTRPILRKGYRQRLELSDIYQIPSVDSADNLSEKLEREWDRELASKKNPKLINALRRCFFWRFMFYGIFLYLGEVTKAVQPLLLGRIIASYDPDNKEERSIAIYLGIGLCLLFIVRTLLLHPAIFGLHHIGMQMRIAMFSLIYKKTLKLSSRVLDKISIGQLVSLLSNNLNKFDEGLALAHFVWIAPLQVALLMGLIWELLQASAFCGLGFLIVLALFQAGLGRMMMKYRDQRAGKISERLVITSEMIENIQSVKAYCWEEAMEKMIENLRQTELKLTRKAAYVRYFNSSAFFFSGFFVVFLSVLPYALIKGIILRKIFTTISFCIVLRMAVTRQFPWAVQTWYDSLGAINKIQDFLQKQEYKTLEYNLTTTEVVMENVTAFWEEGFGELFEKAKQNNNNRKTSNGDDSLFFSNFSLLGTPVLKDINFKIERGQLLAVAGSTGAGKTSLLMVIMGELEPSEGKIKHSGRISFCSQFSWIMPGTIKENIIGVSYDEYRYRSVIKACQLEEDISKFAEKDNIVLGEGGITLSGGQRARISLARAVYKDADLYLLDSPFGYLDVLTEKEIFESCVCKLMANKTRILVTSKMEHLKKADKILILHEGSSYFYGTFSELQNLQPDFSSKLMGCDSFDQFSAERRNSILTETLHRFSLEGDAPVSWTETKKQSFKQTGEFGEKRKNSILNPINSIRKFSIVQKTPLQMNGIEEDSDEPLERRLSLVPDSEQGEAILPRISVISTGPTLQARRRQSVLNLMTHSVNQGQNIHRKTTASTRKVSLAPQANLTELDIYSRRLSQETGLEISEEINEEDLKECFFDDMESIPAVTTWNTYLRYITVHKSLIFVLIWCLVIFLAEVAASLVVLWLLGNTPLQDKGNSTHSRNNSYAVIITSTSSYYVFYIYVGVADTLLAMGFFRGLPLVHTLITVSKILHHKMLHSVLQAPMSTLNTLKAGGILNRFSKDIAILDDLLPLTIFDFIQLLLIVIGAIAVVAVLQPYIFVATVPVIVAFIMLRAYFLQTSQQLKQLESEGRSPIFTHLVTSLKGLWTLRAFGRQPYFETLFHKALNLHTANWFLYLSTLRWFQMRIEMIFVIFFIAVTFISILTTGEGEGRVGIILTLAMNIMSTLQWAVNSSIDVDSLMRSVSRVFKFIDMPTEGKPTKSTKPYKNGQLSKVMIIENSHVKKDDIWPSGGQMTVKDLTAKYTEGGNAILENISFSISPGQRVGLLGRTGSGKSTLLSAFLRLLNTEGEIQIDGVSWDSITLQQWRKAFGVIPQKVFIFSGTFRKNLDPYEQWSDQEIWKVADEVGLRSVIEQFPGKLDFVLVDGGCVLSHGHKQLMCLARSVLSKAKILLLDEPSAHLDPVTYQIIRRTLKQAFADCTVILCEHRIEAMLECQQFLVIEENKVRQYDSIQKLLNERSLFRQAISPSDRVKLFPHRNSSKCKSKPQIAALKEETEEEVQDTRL
The test system of assay [2] is Cystic fibrosis transmembrane conductance regulator (Homo sapiens), P13569 [F508del]. Kind of assay: Corrector activity at HRP-fused CFTR F508del mutant (unknown origin) expressed in human CFBE41o cells assessed as increase in matured protein levels at cell surface at 20 uM after 18 to 24 hrs by luminescence assay relative to 3-[(2R,4R)-4-({[l-(2,2-difluoro-l,3-benzodioxol-5-yl)cyclopropyl]carbonyl}amino)-7-methoxy-3,4-dihydro-2H-chromen-2-yl]benzoic acid.
Cystic fibrosis transmembrane conductance regulator (Homo sapiens), P13569 [F508del], sequence (P13569 as listed by the source): as above

Assay [3] addresses T1, Cystic fibrosis transmembrane conductance regulator. The assay can be described thus: Corrector activity at HRP-fused CFTR F508del mutant (unknown origin) expressed in human CFBE41o cells assessed as increase in matured protein levels at cell surface after 18 to 24 hrs in presence of co-corrector 3-[(2R,4R)-4-({[l-(2,2-difluoro-l,3-benzodioxol-5-yl)cyclopropyl]carbonyl}amino)-7-methoxy-3,4-dihydro-2H-chromen-2-yl]benzoic acid by luminescence assay.

Assay [4] relates to Cystic fibrosis transmembrane conductance regulator (Homo sapiens), P13569 [F508del]. Kind of assay: Corrector activity at HRP-fused CFTR F508del mutant (unknown origin) expressed in human CFBE41o cells assessed as increase in matured protein levels at cell surface at 20 uM after 18 to 24 hrs in presence of co-corrector 3-[(2R,4R)-4-({[l-(2,2-difluoro-l,3-benzodioxol-5-yl)cyclopropyl]carbonyl}amino)-7-methoxy-3,4-dihydro-2H-chromen-2-yl]benzoic acid by luminescence assay relative to co-corrector.

As to `CC(C)c1ccccc1[C@H]1[C@@H](NCc2cccc3c2OC(C)(C)C3)[C@H](C(C)(C)C)[C@@H](C(=O)O)N1C(=O)[C@@H]1CCCCO1`, the EC50 in assay [1] and in assay [3] was under 1000 nM in each case. Also, the %max was over 200% in assay [2] and over 350% in assay [4].
For `COc1ncc(C(C)C)cc1CN[C@H]1[C@H](C(C)(C)OC)[C@@H](C(=O)O)N(C(=O)C2CCCCC2)[C@H]1c1ccccc1`, the EC50 in assay [1] and in assay [3] was 1000 to 10000 nM throughout. Moreover, the %max in assay [2] is over 200%; in assay [4] it was over 350%.
Consider `COc1ncc(C2CCC2)cc1CN[C@H]1[C@H](C(C)(C)C)[C@@H](C(=O)O)N(C(=O)C2CCCCC2)[C@H]1c1ccccc1C`, for which the EC50 in assay [1] and in assay [3] was under 1000 nM each time. The %max in assay [2] was over 200%; in assay [4], over 350%.
Turning to `COc1cc2c(cc1CN[C@H]1[C@H](C(C)(C)C)[C@@H](C(=O)O)N(C(=O)C3CCCCC3)[C@H]1c1ccccc1)C(C)(C)CCC2(C)C`, the EC50 in assay [1] and in assay [3] was under 1000 nM throughout. The %max in assay [2] was 100 to 200%; in assay [4], over 350%.
Turning to `COc1ccc(-c2cccc(F)c2F)cc1CN[C@H]1[C@H](C(C)(C)C)[C@@H](C(=O)O)N(C(=O)C2CCCCC2)[C@H]1c1ccccc1`, the EC50 in assay [1] and in assay [3] was under 1000 nM in each case. Besides, the %max in assay [2] is over 200%; in assay [4] it was over 350%.
As for `COc1ccc([Si](C)(C)C)cc1CN[C@H]1[C@H](C(C)(C)C)[C@@H](C(=O)O)N(C(=O)C2CCCCC2)[C@H]1c1ccccc1`, the EC50 in assay [1] and in assay [3] was under 1000 nM each time. The %max in assay [2] is over 200%; in assay [4], over 350%.
With `COc1ccc(C2(C)CCC2)cc1CN[C@H]1[C@H](C(C)(C)C)[C@@H](C(=O)O)N(C(=O)[C@@H]2CCCCO2)[C@H]1c1ccccc1C`, the EC50 in assay [1] and in assay [3] was under 1000 nM each time. The %max was over 200% in assay [2] and over 350% in assay [4].
For the molecule `COc1ccc(C(C)(C)C)cc1CN[C@H]1[C@H](C(C)(C)C)[C@@H](C(=O)O)N(C(=O)C2CCCCC2)[C@H]1c1cccnc1N(C)C`, the EC50 in assay [1] and in assay [3] was under 1000 nM in each case. For the same molecule, the %max in assay [2] was over 200%; in assay [4], over 350%.
As for `COc1ccc(C(C)(C)C)cc1CN[C@H]1[C@H](C(C)(C)C)[C@@H](C(=O)O)N(C(=O)[C@@H]2Cc3ccccc3O2)[C@H]1c1ccccc1`, the EC50 in assay [1] and in assay [3] was under 1000 nM throughout. The %max in assay [2] is over 200%; in assay [4] it was over 350%.
